Test [1] concerns Puccinia recondita f. Sp. Tritici. Nature of the test: Fungicidal activity against Puccinia recondita f. sp. tritici / wheat / leaf disc curative (brown rust). Particulars: foliar, 24 h, 200 ppm in the applied formulation, wheat leaf segments, curative (applied 1 day after inoculation), compared to untreated control leaf disks, read-out: disease control. Format: in vivo. The procedure: Leaf disks or leaf segments of various plant species are cut from plants grown in a greenhouse. The cut leaf disks or segments are placed in multiwell plates (24-well format) onto water agar. The leaf disks are sprayed with a test solution before (preventative) or after (curative) inoculation. Compounds to be tested are prepared as DMSO solutions (max. 10 mg/ml) which are diluted to the appropriate concentration with 0.025% Tween20 just before spraying. The inoculated leaf disks or segments are incubated under defined conditions (temperature, relative humidity, light, etc.) according to the respective test system. A single evaluation of disease level is carried out 3 to 14 days after inoculation, depending on the pathosystem. Percent disease control relative to the untreated check leaf disks or segments is then calculated.
Fungicidal Activity Against Puccinia recondita f. Sp. Tritici/Wheat/Leaf Disc Curative (Brown Rust)
Wheat leaf segments cv. Kanzler are placed on agar in multiwell plates (24-well format). The leaf segments are then inoculated with a spore suspension of the fungus. Plates were stored in darkness at 19° C. and 75% relative humidity. The formulated test compound diluted in water was applied 1 day after inoculation. The leaf segments were incubated at 19° C. and 75% relative humidity under a light regime of 12 hours light/12 hours darkness in a climate cabinet and the activity of a compound was assessed as percent disease control compared to untreated when an appropriate level of disease damage appears in untreated check leaf segments (6 to 8 days after application).
The following compounds at 200 ppm in the applied formulation give at least 80% disease control in this test when compared to untreated control leaf disks under the same conditions, which show extensive disease development.

Test [2] concerns Glomerella lagenarium (Colletotrichum lagenarium). Nature of the test: Fungicidal activity against Glomerella lagenarium (Colletotrichum lagenarium) liquid culture / cucumber / preventative (anthracnose). The class given is cell-based. Particulars: Colletotrichum orbiculare; 20 ppm in the applied formulation; liquid culture (PDB), growth inhibition measured photometrically after 3 to 4 days; compared to untreated control; read-out: disease control. Summed up: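 Photometric read-out of fungal growth after 2–7 days, expressed as percent antifungal activity versus untreated check. Cryo-stored conidia in PDB; compound at 20 ppm; dark, 24 °C, 96% RH.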

Test [3] deals with Puccinia recondita f. Sp. Tritici. Briefly: Fungicidal activity against Puccinia recondita f. sp. tritici / wheat / leaf disc preventative (brown rust). The class given is in vivo. Particulars: foliar, 200 ppm in the applied formulation, wheat leaf segments, preventative, compared to untreated control leaf disks, read-out: disease control. An outline of the steps: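 Compound application precedes infection: segments of wheat cv. Kanzler, sprayed at 200 ppm, are inoculated with a spore suspension after 1 day. Incubation is at 19° C. with 75% relative humidity and 12 h light/12 h darkness, and control versus untreated leaves is rated 7 to 9 days post-application.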

For `CC1(C(=O)N(Cc2ccc(-c3noc(C(F)(F)F)n3)cc2)Cc2ccco2)COC1` [Compound 1.468, N-(2-furylmethyl)-3-methyl-N-[[4-[5-(trifluoromethyl)-1,2,4-oxadiazol-3-yl]phenyl]methyl]-oxetane-3-carboxamide], the pest or weed control at 200 ppm in test [1] and in test [3] was at least 80% throughout. In addition, the inhibition of growth at 20 ppm in test [2] is at least 80%.

With `CC=CC(=O)N(Cc1ccc(-c2noc(C(F)(F)F)n2)cc1)C(C)CC` (stereo not shown) [Compound 1.370, N-sec-butyl-N-[[4-[5-(trifluoromethyl)-1,2,4-oxadiazol-3-yl]phenyl]methyl] but-2-enamide], the pest or weed control at 200 ppm in test [1] and in test [3] was at least 80% throughout. The inhibition of growth at 20 ppm in test [2] was at least 80%.

Turning to `COC(=O)N(Cc1ccc(-c2noc(C(F)(F)F)n2)cc1)CC(F)(F)F` [Compound 2.22, methyl N-(2,2,2-trifluoroethyl)-N-[[4-[5-(trifluoromethyl)-1,2,4-oxadiazol-3-yl]phenyl]methyl]-carbamate], the pest or weed control at 200 ppm in test [1] and in test [3] was at least 80% throughout. Further, in test [2], the inhibition of growth at 20 ppm was at least 80%.

For the molecule `CN(CC#N)C(=O)N(C)Cc1ccc(-c2noc(C(F)(F)F)n2)cc1` [Compound 3.70, 1-(cyanomethyl)-1,3-dimethyl-3-[[4-[5-(trifluoromethyl)-1,2,4-oxadiazol-3-yl]phenyl]methyl]urea], the pest or weed control at 200 ppm in test [1] and in test [3] was at least 80% throughout. Further, the inhibition of growth at 20 ppm in test [2] was at least 80%.

Take `C=CCN(C)C(=O)N(CC)Cc1ccc(-c2noc(C(F)(F)F)n2)cc1` [Compound 3.97, 1-allyl-3-ethyl-1-methyl-3-[[4-[5-(trifluoromethyl)-1,2,4-oxadiazol-3-yl]phenyl]methyl]urea]: the pest or weed control at 200 ppm in test [1] and in test [3] was at least 80% each time. Further, the inhibition of growth at 20 ppm in test [2] is at least 80%.

With `C=C(C)C(=O)N(Cc1ccc(-c2noc(C(F)(F)F)n2)cc1)CC1CCCO1` (stereo not shown) [Compound 1.433, 2-methyl-N-(tetrahydrofuran-2-ylmethyl)-N-[[4-[5-(trifluoromethyl)-1,2,4-oxadiazol-3-yl]phenyl]methyl]-prop-2-enamide], the pest or weed control at 200 ppm in test [1] and in test [3] was at least 80% each time. For the same molecule, the inhibition of growth at 20 ppm in test [2] was at least 80%.

For `C#CCN(C(=O)N(CC)Cc1ccc(-c2noc(C(F)(F)F)n2)cc1)C1CC1` [Compound 3.99, 1-cyclopropyl-3-ethyl-1-prop-2-ynyl-3-[[4-[5-(trifluoromethyl)-1,2,4-oxadiazol-3-yl]phenyl]methyl]urea], the pest or weed control at 200 ppm in test [1] and in test [3] was at least 80% each time. Moreover, in test [2], the inhibition of growth at 20 ppm was at least 80%.

Regarding `CCN(CC1CC1)C(=O)N(C)Cc1ccc(-c2noc(C(F)(F)F)n2)cc1` [Compound 3.81, 1-(cyclopropylmethyl)-1-ethyl-3-methyl-3-[[4-[5-(trifluoromethyl)-1,2,4-oxadiazol-3-yl]phenyl]methyl]urea], the pest or weed control at 200 ppm in test [1] and in test [3] was at least 80% throughout. For the same molecule, the inhibition of growth at 20 ppm in test [2] is at least 80%.

With `COCCN(Cc1ccc(-c2noc(C(F)(F)F)n2)cc1)C(=O)C1CCCN1C(C)=O` (stereo not shown) [Compound 1.357, 1-acetyl-N-(2-methoxyethyl)-N-[[4-[5-(trifluoromethyl)-1,2,4-oxadiazol-3-yl]phenyl]methyl]-pyrrolidine-2-carboxamide], the pest or weed control at 200 ppm in test [1] and in test [3] was at least 80% in each case.

Turning to `CON(Cc1ccc(-c2noc(C(F)(F)F)n2)nc1)C(=O)C1CCCO1` (stereo not shown) [Compound 1.789, N-methoxy-N-[[6-[5-(trifluoromethyl)-1,2,4-oxadiazol-3-yl]-3-pyridyl]methyl]-tetrahydrofuran-2-carboxamide], the pest or weed control at 200 ppm in test [1] and in test [3] was at least 80% each time.

In the case of `CCC(COC)C(=O)N(CCOC)Cc1ccc(-c2noc(C(F)(F)F)n2)cc1` (stereo not shown) [Compound 1.353, N-(2-methoxyethyl)-2-(methoxymethyl)-N-[[4-[5-(trifluoromethyl)-1,2,4-oxadiazol-3-yl]phenyl]methyl]-butanamide], the pest or weed control at 200 ppm in test [1] and in test [3] was at least 80% each time.

Turning to `CNC(=O)CN(C)C(=O)N(C)Cc1ccc(-c2noc(C(F)(F)F)n2)cc1` [Compound 3.68, N-methyl-2-[methyl-[methyl-[[4-[5-(trifluoromethyl)-1,2,4-oxadiazol-3-yl]phenyl]methyl]-carbamoyl]-amino]acetamide], the pest or weed control at 200 ppm in test [1] and in test [3] was at least 80% each time.

For the molecule `C#CCN(Cc1ccc(-c2noc(C(F)(F)F)n2)cc1)C(=O)C1CCSCC1` [Compound 1.188, N-prop-2-ynyl-N-[[4-[5-(trifluoromethyl)-1,2,4-oxadiazol-3-yl]phenyl]methyl]-tetrahydrothiopyran-4-carboxamide], the pest or weed control at 200 ppm in test [1] and in test [3] was at least 80% in each case.

Take `CCN(Cc1ccc(-c2noc(C(F)(F)F)n2)cc1)C(=O)N(C)CC(=O)NC` [Compound 3.86, 2-[[ethyl-[[4-[5-(trifluoromethyl)-1,2,4-oxadiazol-3-yl]phenyl]methyl]-carbamoyl]-methyl-amino]-N-methyl-acetamide]: the pest or weed control at 200 ppm in test [1] and in test [3] was at least 80% each time.

On to `CON(Cc1ccc(-c2noc(C(F)(F)F)n2)cc1)C(=O)CN` [Compound 1.788, [2-[methoxy-[[4-[5-(trifluoromethyl)-1,2,4-oxadiazol-3-yl]phenyl]methyl]-amino]-2-oxo-ethyl]ammonium; chloride], for which the pest or weed control at 200 ppm in test [1] and in test [3] was at least 80% in each case.

In the case of `COCCN(Cc1ccc(-c2noc(C(F)(F)F)n2)cc1)C(=O)C1(F)CC1` [Compound 1.349, 1-fluoro-N-(2-methoxyethyl)-N-[[4-[5-(trifluoromethyl)-1,2,4-oxadiazol-3-yl]phenyl]methyl]-cyctopropane-carboxamide], the pest or weed control at 200 ppm in test [1] was at least 80%. Further, the inhibition of growth at 20 ppm in test [2] is at least 80%.

With `CCN(Cc1ccc(-c2noc(C(F)(F)F)n2)cc1)C(=O)N(CC)CC1CC1` [Compound 3.100, 1-(cyclopropylmethyl)-1,3-diethyl-3-[[4-[5-(trifluoromethyl)-1,2,4-oxadiazol-3-yl]phenyl]methyl]urea], the pest or weed control at 200 ppm in test [1] was at least 80%. In test [2], the inhibition of growth at 20 ppm was at least 80%.

With `O=C(CCCCC(F)(F)F)N(Cc1ccc(-c2noc(C(F)(F)F)n2)cc1)C1CC1` [Compound 1.131, N-cyclopropyl-6,6,6-trifluoro-N-[[4-[5-(trifluoromethyl)-1,2,4-oxadiazol-3-yl]phenyl]methyl]-hexanamide], the pest or weed control at 200 ppm in test [1] is at least 80%. The inhibition of growth at 20 ppm in test [2] was at least 80%.

Turning to `CCC(C)N(Cc1ccc(-c2noc(C(F)(F)F)n2)cc1)C(=O)C1=CCCC1` (stereo not shown) [Compound 1.377, N-sec-butyl-N-[[4-[5-(trifluoromethyl)-1,2,4-oxadiazol-3-yl]phenyl]methyl]-cyclopentene-1-carboxamide], in test [1], the pest or weed control at 200 ppm is at least 80%. In test [2], the inhibition of growth at 20 ppm is at least 80%.

Regarding `CON(Cc1ccc(-c2noc(C(F)(F)F)n2)cc1)C(=O)Cc1ccc(C#N)cc1` [Compound 1.52, 2-(4-cyanophenyl)-N-methoxy-N-[[4-[5-(trifluoromethyl)-1,2,4-oxadiazol-3-yl]phenyl]methyl]-acetamide], the pest or weed control at 200 ppm in test [1] and in test [3] was at least 80% throughout.

`CCCON(Cc1ccc(-c2noc(C(F)(F)F)n2)cc1)C(=O)C1OCCO1` [Compound 1.317, N-propoxy-N-[[4-[5-(trifluoromethyl)-1,2,4-oxadiazol-3-yl]phenyl]methyl]-1,3-dioxolane-2-carboxamide]: the pest or weed control at 200 ppm in test [1] was at least 80%. The inhibition of growth at 20 ppm in test [2] was at least 80%.

For the molecule `CON(Cc1ccc(-c2noc(C(F)(F)F)n2)cc1)C(=O)c1cccc(C(F)(F)F)c1` [Compound 1.13, N-methoxy-3-(trifluoromethyl)-N-[[4-[5-(trifluoromethyl)-1,2,4-oxadiazol-3-yl]phenyl]methyl]-benzamide], the pest or weed control at 200 ppm in test [1] was at least 80%. The inhibition of growth at 20 ppm in test [2] is at least 80%.

(Values after patent US11180462B2, “Microbiocidal oxadiazole derivatives” (SYNGENTA PARTICIPATIONS AG, priority 2015, dated 2021).)
